Reference: patent publication US7033604B2, “Composition for topical administration” (Sucampo AG, priority 2001, dated 2006)
Marks after values point to notes of the source that are not given here.

Key:
[1] = test system: Experimental Pseudomonas keratitis; experiment: Anti-inflammatory test: slit lamp scoring of conjunctival and corneal inflammation in experimental Pseudomonas keratitis; type: in vivo, Japanese white rabbits; conditions: for Score (conjunctiva) Mean ± SE: conjunctival inflammation at 48 hours after bacterial inoculation, sum of scores; for Score (conjunctiva) Mean ± SE / Score (cornea) Mean ± SE: 6 eyes; for Score (cornea) Mean ± SE: corneal inflammation at 60 hours after bacterial inoculation, sum of corneal opacity (0–8) and corneal ulcer (0–3)
Protocol: Experimental Pseudomonas keratitis was induced for 12 Japanese white rabbits (13 weeks old, Std: JW/CSK) as described in Test Experiment 1. After bacterial inoculation, the rabbits were divided into 4 groups (three rabbits-six eyes/group). Fifty microliters of each test substance or vehicle was topically applied to both eyes of each animal 4 times a day at intervals of 4 hours beginning 12 hours after the bacterial inoculation. The test substance and vehicle were the same as those used in Test Example 1. Rabbit eyes were examined with a slit lamp biomicroscope, and severity of conjunctival inflammation at 48 hours after bacterial inoculation and corneal inflammation at 60 hours after bacterial inoculation were evaluated by assigning a numerical value to the following signs based on the method described by Kuriyama H et al. Corneal inflammation was evaluated by sums of the scores of corneal opacity (score 0–8) and corneal ulcer (score 0–3). Conjunctival inflammation was evaluated by sums of the scores of redness of palpebral conjunctival inflammation (score 0–4), edema of palpebral conjunctiva (score 0–4), nictitating membrane status (score 0–3) and discharge (score 0–3).

[2] = test system: Pseudomonas aeruginosa IID-1210; experiment: Anti-microbial test: viable bacterial counts in wounded rabbit cornea inoculated with Pseudomonas aeruginosa; type: in vivo; conditions: for Colony forming units per gram of cornea Mean ± SE: cornea excised 4 hours after administration, Japanese white rabbits, 6 eyes
Protocol: Single colony isolate of Pseudomonas aeruginosa IID-1210 (provided by Department of Ophthalmology, Yokohama City University School of Medicine, Japan) on NAC agar plate was inoculated in 2 mL of heart infusion broth, and kept for overnight at 37° C. One hundred microliters of the overnight culture was inoculated in 10 mL of heart infusion broth, and then grown for about 12 hours at 37° C. with shaking. Twelve Japanese white rabbits (13 weeks old, Std: JW/CSK, Japan SLC, Inc.) were anesthetized by intravenous injection of pentobarbital sodium (25 mg/kg), and then topical anesthesia was made by instillation of 0.4% oxybuprocaine hydrochloride to both eyes. The corneal wound was produced bilaterally using a 6-mm trephine and 27-gauge needle according to the method described by Hatano H et al. (Japanese Review of Clinical Ophthalmology 79: 1153, 1985). Forty microliters of the bacterial suspension prepared above was instilled onto the wounded cornea twice (Day 1, 21:00). After bacterial inoculation, the rabbits were divided into 4 groups (three rabbits-six eyes/group). Fifty microliters of each test substance or vehicle was topically applied to both eyes of each animal once 12 hours after bacterial inoculation (Day 2, 9:00). […] Four hours after administration of test substances, the animals were sacrificed with an intravenous overdose of pentobarbital sodium, eyes were enucleated, and then corneas were excised using a 6-mm trephine. After weighing, each cornea was homogenized in 1 mL of sterile physiological saline. Aliquot (0.1 mL) of each homogenate was plated on NAC agar, and incubated for 24 hours at 37° C. The colonies were then counted. All quantitative cultures were run in triplicate, and the arithmetic mean of three measurements was determined for each cornea. Results were expressed as the number of organisms (determined by measures of colony forming units [CFU]) per gram of corneal weight.

[3] = 0.3% ofloxacin, 50 microliters topically 4 times a day from 12 hours after inoculation
[4] = 0.06% FK-506, 50 microliters topically 4 times a day from 12 hours after inoculation

CC1COc2c(N3CCN(C)CC3)c(F)cc3c(=O)c(C(=O)O)cn1c23 (stereo not drawn) [ofloxacin]
Score (conjunctiva) Mean ± SE [1, 3]: 6.0 ± 0.5
Score (cornea) Mean ± SE [1, 3]: 2.1 ± 0.4^a)
Colony forming units per gram of cornea Mean ± SE ([2]; 0.3% ofloxacin, 50 microliters topically to both eyes once 12 hours after bacterial inoculation): 0^a),b) Colony forming units per gram of cornea

C=CCC1/C=C(\C)CC(C)CC(OC)C2OC(O)(C(=O)C(=O)N3CCCCC3C(=O)OC(/C(C)=C/C3CCC(O)C(OC)C3)C(C)C(O)CC1=O)C(C)CC2OC (stereo not drawn) [FK-506, 17-allyl-1,14-dihydroxy-12-[2-(4-hydroxy-3-methoxycyclohexyl)-1-methylvinyl]-23,25-dimethoxy-13,19,21,27-tetramethyl-11,28-dioxa-4-azatricyclo [22.3.1.0^4,9]octacos-18-ene-2,3,10,16-tetraone]
Effect on conjunctival inflammation (in words) ([1]; 0.06% FK-506, 4 times a day, 48 hours after inoculation): tended to decrease the conjunctival inflammation
Effect on corneal inflammation (in words) ([1]; 0.06% FK-506, 4 times a day, 60 hours after inoculation): tended to decrease the corneal inflammation
Score (conjunctiva) Mean ± SE [1, 4]: 6.7 ± 0.4
Score (cornea) Mean ± SE [1, 4]: 6.0 ± 0.0
Colony forming units per gram of cornea Mean ± SE ([2]; 0.06% FK-506, 50 microliters topically to both eyes once 12 hours after bacterial inoculation): 31225 ± 7204 Colony forming units per gram of cornea
Effect on viable Pseudomonas counts (in words) ([2]; 0.06% FK-506, single topical application, compared with vehicle treatment): decreased the viable Pseudomonas counts as compared with vehicle treatment, but not significantly
